Test results: patent US11021687B2, “Production of differentiated enteroendocrine cells and insulin producing cells” (Massachusetts Institute of Technology, priority 2016, dated 2021)
Like-named read-outs stand apart in the source and are kept apart here.

How the values were obtained:
intestinal stem cells [1] = assay: mRNA expression (qPCR) of ChgA and other lineage markers in differentiated intestinal stem cells; type: cell-based, mouse; conditions: for differentiation towards EEC (ChgA expression): added to Notch and EGFR/MEK/ERK inhibition combination without R-Spondin1; for ChgA expression of the differentiated cells: versus previous differentiation conditions (FIG. 21); for expression of Goblet cell marker (Muc2) and Paneth cell marker (Lyz1): 24-well validation; for expression of enteroendocrine cell marker ChgA: multiple conditions (FIG. 6); for expression of functional EEC markers such as Gip, Gcg, Cck, Pyy: relative to reference gene Hprt; for EEC marker ChgA expression / expression of markers for K cell (Gip), L cell (Gcg), and I cell (Cck): 5 days 2-step protocol, Tubastatin A in step 1, Tranylcypromine in both steps
Text: “mRNA ChgA Expression Assay” refers to an assay used to determine the relative ChgA mRNA expression level in a cell population. For example, the assay can determine ChgA mRNA expression level of a differentiated cell population following treatment with agents being tested, as compared to an untested population of post-natal stem cells. In an example of an mRNA ChgA Expression Assay, the cells were collected and the RNA is extracted from the cells using an RNA extraction kit (such as RNeasy Mini kit, Qiagen). The ChgA expression level is then assessed by Quantitative real-time PCR using a one-step qPCR kit (such as QuantiTech Probe PCR kit, Qiagen) and ChgA primers and probes (such as commercially available Taqman probe for mouse ChgA, Life Technologies).
(§1) Organoids or differentiated cells were harvested and RNA was extracted using RNeasy Micro Kit (Qiagen) according to the manufacturer's instruction. Quantitative real-time PCR was performed with QuantiTect Probe PCR kit (Qiagen) using commercially available primers and TaqMan probes (Life Technologies).
Cells were then cultured with EGF, Noggin, and DAPT (END), as well as small molecules. After 2-3 days of differentiation, the cells lysed and ChgA expression was measured by qRT-PCR.
Small molecules were further validated using a 24-well plate culture and the differentiation system. […] The expression of markers of secretory lineage cells including goblet cells (Muc2), enteroendocrine cells (ChgA), and Paneth cells (Lyz1) were measured.

[2] = tested on: differentiated cell colonies
[3] = tested on: differentiated intestinal stem cells; assay: Insulin-GFP reporter expression (FACS) in differentiated intestinal stem cells; type: cell-based, mouse; conditions: for percentage of Insulin-GFP+ cells: further addition to 616452, day 5; for optimal concentration in inducing insulin-GFP expression: dose response, day 5
Text: “Insulin Activity Assay” as used herein is an assay used to determine the extent to which insulin gene transcription, translation or insulin release has been activated in a cell population. In an exemplary Insulin Activity Assay, the initial cells are isolated from the intestine of an Insulin-GFP mouse such as […] mouse (also referred to as the MIT-GFP mouse, Jackson lab stock no.: 006864). Intestinal crypts are isolated from the proximal half of the intestine. […] The cells are then passaged for 1-2 times to create a starting cell population for the assay. To test the capacity of agents to activate insulin gene transcription, translation or insulin release, the cells are incubated with appropriate culture media (e.g. aforementioned crypt culture media), growth factors and/or other agents being tested. Appropriate culture media, including crypt culture media as well as the agents being assessed, are added into each well and incubated with the cells for a period of 2-10 days with media change every 2 days. The fraction of insulin-GFP positive cells (i.e., cells in which the insulin-GFP reporter is activated) can be quantified using a flow cytometer to measure the fraction of GFP+ cell population present in the total cell population. Also, the average insulin activity of a cell population can be measured by measuring the average mRNA expression level of insulin of the population normalized using suitable references or housekeeping genes (e.g., using mRNA expression of Hprt as a baseline).

[4] = tested on: gastrointestinal stem cells; assay: Insulin / Nkx6.1 mRNA expression (qPCR), 3-stage conversion to insulin producing cells; type: cell-based, mouse
Text: “mRNA Insulin Expression Assay” refers to an assay used to determine the relative insulin mRNA expression level of a cell population. For example, the assay can determine the insulin mRNA level expressed in a cell population treated to increase the expression of insulin in the cells, as compared to an untreated population of cells. In an exemplary mRNA Insulin Expression Assay, the cells were collected and the RNA is extracted from the cells using an RNA extraction kit (such as RNeasy Mini kit, Qiagen). The insulin expression level is then assessed by Quantitative real-time PCR using a one-step qPCR kit (such as QuantiTech Probe PCR kit, Qiagen) and Ins1 or Ins2 primers and probes (such as the commercially available TaqMan probe for mouse Ins1 and Ins2, Life Technologies). The relative insulin mRNA expression can be determined relative to a baseline or other marker, such as Hprt mRNA expression level or other baseline marker.
as §1
Based on the protocol to convert gastrointestinal stem cells into insulin producing cells, a 3-stage process was developed, specifically, Day 0-1 as Stage 1, Day 1-3 as Stage 2, Day 3-5 as Stage 3. After Stage 3, the cells turn on significant level of Insulin expression as indicated by Ins-EGFP expression and qPCR for Insulin mRNA expression. Optionally, the cells can be further cultured for 1-2 weeks, as Stage 4. For each stage, a set of specific combination of small molecules (and/or growth factors) were added. The objective was to optimize the reprogramming protocol to increase insulin expression, specifically Insulin mRNA expression for each stage, by screening and testing new small molecules (or growth factors).

intestinal stem cells [5] = assay: Ngn3 mRNA expression during EEC differentiation; type: cell-based, mouse
Description: “Ngn3 Assay” as used herein is an assay used to determine the extent of expression of Ngn3 in cells, such as cells subjected to a differentiation protocol. In an exemplary Ngn3 Assay, RNA is isolated from cells that have been cultured according to a differentiation protocol, and quantitative real-time PCR is performed using commercially available primers and probes (such as Taqman probes) to determine an extent of Ngn3 expression in the cells.
as §1
There has been prior speculation that Ngn3 positive secretory progenitors differentiate to EECs (Genes Dev. 2002).

[6] = continuing culture of Islet-like Insulin expression cell colonies
[7] = added in step 2 of 2-step protocol
[8] = 96-well screening, END conditions, 2-3 days
[9] = 2 days, added after removal of R-spondin1
[10] = added in step 1 only versus both steps
[11] = ENRD conditions, 2 days of differentiation

Compound: EGF: epidermal growth factor
- EEC marker (ChgA, Gip, Gcg, CCK) expression on removing EGF from the media (intestinal stem cells [1]; 5 days): further increased
- dead cells in the lumen of the differentiated cell colony ([2]; EGF removed in both steps): more dead cells

Compound: Cc1c[nH]c(-c2cnc(NCCNc3ccc(C#N)cn3)nc2-c2ccc(Cl)cc2Cl)n1 [CHIR99021, 6-[[2-[[4-(2,4-dichlorophenyl)-5-(5-methyl-1H-imidazol-2-yl)-2-pyrimidinyl]amino]ethyl]amino]-3-pyridinecarbonitrile]
- differentiation towards EEC (ChgA expression) (intestinal stem cells [1]): did not further increase
- GFP expression ([3]; added in Step 1 to increase Wnt activation, 5 days): did not increase
- Insulin mRNA expression ([4]; Stage 3, combined with T3): further increased
- Insulin mRNA expression ([4]; added in Stage 3): greatly increased

Compound: O=C(O)c1ccc(O)c2ncccc12 [IOX1]
- Insulin and Nkx6.1 expression ([4]; used at 5-10 μM): increased

Compound: COC(=O)C1=C(C)NC(C)=C([N+](=O)[O-])C1c1ccccc1C(F)(F)F (centres unmarked) [BayK 8644]
- stages of addition giving highest activity [4]: highest activity when added in Stages 1-3
- Insulin mRNA expression ([4]; added in Stage 1): increased
- concentration of highest activity / optimal concentration in promoting Insulin expression ([4]; dose response): 2 µM
- effect of removal [2, 6]: could be removed without much influence

Compound: Cc1ccc2nc(NC(=O)CSc3nc4c(c(=O)n3-c3ccccc3)SCC4)sc2c1 [IWP 2]
- differentiation towards EEC (ChgA expression) (intestinal stem cells [1]): did not further increase

Compound: N[C@@H](Cc1cc(I)c(Oc2ccc(O)c(I)c2)c(I)c1)C(=O)O [T3, Triiodothyronine]
- Insulin mRNA expression ([4]; added in Stage 3): greatly increased

Compound: Cc1cc(-c2ccc(CC(=O)Nc3ccc(-c4cccnc4)cc3)cc2)ccn1 [Wnt-C59]
- Paneth cell marker Lyz1 expression (intestinal stem cells [1]; added in step 2): effectively decreased
- ChgA expression (intestinal stem cells [1]; [7]): further increased
- ChgA expression (intestinal stem cells [1]; delayed addition for 12-24 hours in step 2): further increases
- ChgA expression of the differentiated cells (intestinal stem cells [1]): further increased
- percentage of Insulin-GFP+ cells [3]: subsequently increased
- Insulin mRNA expression ([4]; addition delayed for 12 hours in Stage 2): increased
- optimal dose in promoting Insulin and Nkx6.1 expression ([4]; dose response (FIG. 52)): 5 µM

Compound: Nc1ncn([C@H]2C[C@H](O)[C@@H](CO)O2)c(=O)n1 [5Aza, 5-aza-2′-deoxycytidine]
- Insulin mRNA expression ([4]; treatment extended from Stage 1 only to Stage 1 and Stage 2): slightly increased

Compound: O=C1O[C@H]([C@@H](O)CO)C(O)=C1O [Vitamin C]
- effect on conversion ([4]; added in Stage 2-3): beneficial effects
- Insulin mRNA expression ([4]; added in Stage 3): did not show such effect

Compound: COc1cc2ncnc(Nc3ccc(F)c(Cl)c3)c2cc1OCCCN1CCOCC1 [Gefitinib]
- expression of Goblet cell marker (Muc2) and Paneth cell marker (Lyz1) (intestinal stem cells [1]; END conditions): not similarly increased
- ChgA expression (intestinal stem cells [1]; [8]): increased
- expression of enteroendocrine cell marker ChgA (intestinal stem cells [1]): specifically increased
- Ngn3 expression (intestinal stem cells [5]; [9]): further decreased

Compound: Exendin-4: factor identified to increase Insulin mRNA expression
- Insulin mRNA expression ([4]; added in Stage 3): increase

Compound: Cc1cccc(-c2n[nH]cc2-c2ccc3ncccc3n2)n1 [compound 616452, 2-[3-(6-methyl-2-pyridinyl)-1H-pyrazol-4-yl]-1,5naphthyridine]
- expression of mature EEC markers (Gcg, Gip, Cck, Tph1, Sst, Sct, Pyy) (intestinal stem cells [1]; 2-step protocol): greatly increased
- goblet cell marker Muc2 expression (intestinal stem cells [1]; 2-step protocol): decreased
- Cck expression over the expression level in the ENR condition (intestinal stem cells [1]; 2-step protocol with Repsox): 430 ×
- Gip expression over the expression level in the ENR condition (intestinal stem cells [1]; 2-step protocol with Repsox): 800 ×
- Pyy expression over the expression level in the ENR condition (intestinal stem cells [1]; 2-step protocol with Repsox): 15,000 ×
- Sct expression over the expression level in the ENR condition (intestinal stem cells [1]; 2-step protocol with Repsox): 300 ×
- Tph1 expression over the expression level in the ENR condition (intestinal stem cells [1]; 2-step protocol with Repsox): 120 ×
- ChgA level (intestinal stem cells [1]; [10]): comparable level
- expression of mature EEC markers (intestinal stem cells [1]; [10]): greatly reduced
- ChgA expression (intestinal stem cells [1]; [7]): greatly promoted
- expression of functional EEC markers such as Gip, Gcg, Cck, Pyy (intestinal stem cells [1]): greatly increase
- optimal concentration in inducing insulin-GFP expression [3]: 5 µM
- cells becoming GFP positive ([3]; during EEC differentiation from ISCs): about 1%
- Insulin mRNA (Ins2) ([4]; added in Stage 1-3 compared with Stage 2-3): increased
- optimal dose in promoting Insulin and Nkx6.1 expression ([4]; dose response): 10 to 15 µM
- cell death in the culture [2]: induced cell death

Compound: CC(C)Oc1ccc(-c2cnc3c(-c4ccnc5ccccc45)cnn3c2)cc1 [DMH-1]
- expression of Nkx6.1 and insulin ([4]; added in Stages 2-3): increased
- effect of removal [2, 6]: could be removed without much influence

Compound: O=C(NC1CC1)c1cc(-c2cccs2)on1 [ISX-9, N-cyclopropyl-5-(2-thienyl)-3-isoxazolecarboxamide]
- expression of functional EEC markers such as Gip, Gcg, Cck, Pyy (intestinal stem cells [1]): decreased
- ChgA expression of the differentiated cells (intestinal stem cells [1]): further increased
- number of GFP+ cells ([3]; added to the combination, 5 days in culture): further increase
- optimal dose in promoting Insulin and Nkx6.1 expression ([4]; dose response): 10 to 20 µM

Compound: CC(=O)N[C@@H](CS)C(=O)O [N-Acetylcysteine]
- Insulin mRNA expression ([4]; Stage 3, combined with T3): further increased
- Insulin mRNA expression ([4]; added in Stage 3): increased

Compound: CN1CCc2c(c3ccccc3n2Cc2ccc(C(=O)NO)cc2)C1.Cl [Tubastatin A, N-Hydroxy-4-(2-methyl-1,2,3,4-tetrahydro-pyrido[4,3-b]indol-5-ylmethyl)benzamide hydrochloride]
- EEC marker ChgA expression (intestinal stem cells [1]): increased
- expression of markers for K cell (Gip), L cell (Gcg), and I cell (Cck) (intestinal stem cells [1]): also increased
- ChgA expression (intestinal stem cells [1]; [11]): decreased
- Ngn3 expression (intestinal stem cells [5]; [11]): increase

Compound: Nc1ncn([C@@H]2O[C@H](CO)[C@@H](O)[C@H]2O)c(=O)n1 [5-Aza, 5-Azacytidine]
- optimal concentration in inducing insulin-GFP expression [3]: 0.5 to 1 µM
- percentage of Insulin-GFP+ cells [3]: subsequently increased
- cell death in the culture [2]: induced cell death

Compound: C=C[C@@]1(C)CC(=O)[C@]2(O)[C@@]3(C)[C@@H](O)CCC(C)(C)[C@@H]3[C@H](O)[C@H](OC(C)=O)[C@@]2(C)O1 [Forskolin]
- cell survival ([2]; 50-100 μM, added in Stage 3): improved cell survival
- cell survival [2, 6]: increased cell survival

Compound: COc1cc2ncnc(Nc3ccc(NC(=O)c4ccccc4)cc3)c2cc1OC [Aurora Kinase Inhibitor II]
- Insulin mRNA expression ([4]; added in Stage 3): increase

Compound: N[C@@H]1C[C@H]1c1ccccc1 (racemic) [Tranylcypromine]
- expression of Goblet cell (Muc2) and Paneth cell (Lyz1) markers (intestinal stem cells [1]; 2-step protocol, 5 days): significantly decreased
- EEC marker ChgA expression (intestinal stem cells [1]): increased
- expression of markers for K cell (Gip), L cell (Gcg), and I cell (Cck) (intestinal stem cells [1]): also increased
- ChgA expression (intestinal stem cells [1]; [11]): increased
- Ngn3 expression (intestinal stem cells [5]; [11]): increase

Compound: O=C(NC[C@H](O)CO)c1ccncc1Nc1ccc(I)cc1F [AS703026]
- expression of Goblet cell marker (Muc2) and Paneth cell marker (Lyz1) (intestinal stem cells [1]; END conditions): not similarly increased
- ChgA expression (intestinal stem cells [1]; [8]): increased
- expression of enteroendocrine cell marker ChgA (intestinal stem cells [1]): specifically increased
- Ngn3 expression (intestinal stem cells [5]; [9]): further decreased
